Measured values: patent publication EP0041488A1, “Therapeutically useful tetralin derivatives” (Arvidsson, Folke Lars-Erik, priority 1980, dated 1981)
Marks after values point to notes of the source that are not given here.

Columns and labels:
central 5-HT receptors = test: In-vivo determination of rat brain tryptophan hydroxylation (5-HTP formation) after reserpine pretreatment; conditions: reserpine-pretreated rats; for "ED70%" for 5-HTP reduction: s.c., dose giving 70 % of the control 5-HTP level, similar values for limbic forebrain, striatum and hemispheral portions
Experimental: b. In-vivo determination of rat brain tyrosine and tryptophan hydroxylation after reserpine pretreatment (biochemical DA- and 5-HT receptor activity).
The compounds under evaluation were tested biochemically for central DA- and 5-HT-receptor (pre- and/or postsynaptic) stimulating activity. The concept of this biochemical screening method is that a DA- or 5-HT-receptor agonist will stimulate the receptor and through regulatory feedback systems effect a decline-in tyrosine or tryptophan hydroxylating activity, respectively, and a subsequent reduction in the synthesis rate for DA and 5-HT in the presynaptic neuron. Dopa and 5-HTP formation. as determined after in-vivo inhibition of the aromatic L-amino acid decarboxylase with NSO 1015 (3-hydroxybenzylhydrazine hydrochloride) are taken as indirect measures of DA- and 5-HT-synthesis rates, respectively.
Rats (150-300 g) pretreated with reserpine (5 mg/kg, 18 h before) were given the compounds under evaluation. Gross behavioural observations (changes in motility, hindleg abduction etc; c.f. above) were made. Subsequent administration of NSD 1015, decapitation, brain dissection [cerpera striate, the limbic ferebrain and the remaining hemispheral portions (mainly cortex) of rat brain], homogenization, centrifugation, ion-exchange chromatography and spectro- fluorimetric measurements (all as described in detail by Wikström et al., J. Med. Chem., 21, 864-867, 1978 and references cited therein) gave the actual dopa and 5-HTP levels. Several doses (n=4-6) were tested for each compound and brain area. The dose of a compound giving 70 % of the control 5-HTP.level in the rat brain part was then estimated.

Male Wistar rats = test: Hetero-sexual (masculine copulatory) behaviour in normal male rats; assay type: in vivo, rat; conditions: median
Experimental: (§1) Male Wistar rats (12 months old; sexually experienced) were injected i.p. every second day in a balanced order with different doses of the compounds dissolved in physiological saline and injected in a volume of 2 ml/kg. Testing was begun 15 min after the drug treatment.
(§2) Mating arenas were 50' cm diameter acrylic glass cages with wood shavings on the floor. The stimulus females were of Wistar strain, primed with estradiol benzoate . (20 µg/animal) 48 h prior to testing and progesterone ([…]/animal) 4-6 h before testing.
(§3) The occurrence of mounts, intromissions and ejaculations were scored by an experienced observer. The measures of masculine copulatory behavior further included mount latency and intromission latency which are time from introduction of the stimulus female to the first mount and first intromission respectively. A copulatory series includes the mounts and intromissions preceding an ejaculation. Ejaculatory latency is the time from the first .intromission in a copulatory series to the ejaculation terminating that series. The postejaculatory interval is the time from an ejaculation to the next intromission. Tests were terminated when the rat had achieved one ejaculation and started the second series of copulations, or, if the intromission latency was >15 min, the ejaculation latency was >30 min, or the postejaculatory interval was >15 min.

castrated male rats = test: Sexual behaviour in castrated male rats (preliminary); assay type: in vivo, rat
Experimental: as §1, §2, §3

[1] = subgroup 3 of biochemical potency
[2] = subgroup 1 of biochemical potency

Compound: CCCN(CCC)C1CCc2cccc(OC)c2C1 (racemic) [Compound 8, 2-(di-n-propylamino)-8-methoxytetralin]
- "ED70%" for 5-HTP reduction (central 5-HT receptors): 0.4 µmol/kg
- Mounts (number) (Male Wistar rats; 1 mg/kg i.p., 15 min after treatment, control 2): 0^* b)
- Ejaculatory latency (Male Wistar rats; 1 mg/kg i.p., 15 min after treatment, control 4.75): 3.20 min
- Postejaculatory interval (Male Wistar rats; 1 mg/kg i.p., 15 min after treatment, control 5.50): 6.40 min
- Intromissions (number) (Male Wistar rats; 1 mg/kg i.p., 15 min after treatment, control 9): 8
- Mounts (number) (Male Wistar rats; 2 mg/kg i.p., 15 min after treatment, control 2): 1
- Ejaculatory latency (Male Wistar rats; 2 mg/kg i.p., 15 min after treatment, control 4.75): 2.65 min
- Postejaculatory interval (Male Wistar rats; 2 mg/kg i.p., 15 min after treatment, control 5.50): 5.05 min
- Intromissions (number) (Male Wistar rats; 2 mg/kg i.p., 15 min after treatment, control 9): 7^***
- Mounts (number) (Male Wistar rats; 4 mg/kg i.p., 15 min after treatment, control 2): 1^***
- Ejaculatory latency (Male Wistar rats; 4 mg/kg i.p., 15 min after treatment, control 4.75): 1.55^*** min
- Postejaculatory interval (Male Wistar rats; 4 mg/kg i.p., 15 min after treatment, control 5.50): 4.55 min
- Intromissions (number) (Male Wistar rats; 4 mg/kg i.p., 15 min after treatment, control 9): 3.5^***
- Mounts (number) (Male Wistar rats; 8 mg/kg i.p., 15 min after treatment, control 2): 0^**
- Ejaculatory latency (Male Wistar rats; 8 mg/kg i.p., 15 min after treatment, control 4.75): 0.45^*** min
- Postejaculatory interval (Male Wistar rats; 8 mg/kg i.p., 15 min after treatment, control 5.50): 5.05 min
- Intromissions (number) (Male Wistar rats; 8 mg/kg i.p., 15 min after treatment, control 9): 1.5^***
- Mounts (number) (Male Wistar rats; 16 mg/kg i.p., 15 min after treatment, control 2): 0^***
- Ejaculatory latency (Male Wistar rats; 16 mg/kg i.p., 15 min after treatment, control 4.75): 0.55^*** min
- Postejaculatory interval (Male Wistar rats; 16 mg/kg i.p., 15 min after treatment, control 5.50): 4.55 min
- Intromissions (number) (Male Wistar rats; 16 mg/kg i.p., 15 min after treatment, control 9): 1^***
- castrated male rats that ejaculated (castrated male rats; 8 mg/kg, out of 9 rats (of the 2 with intromissions), preliminary): 1
- castrated male rats that made intromissions (castrated male rats; 8 mg/kg, out of 9 rats (of the 5 that mounted), preliminary): 2
- castrated male rats that mounted the female (castrated male rats; 8 mg/kg, out of 9 rats, none of 9 saline-treated showed any sexual activity, preliminary): 5
- sexual activity of male rats rendered sexual inactive by castration (castrated male rats; preliminary experiments): became sexual active

Compound: CCCN(CCC)C1CCc2cccc(OC)c2C1 (single isomer, unassigned; (+)) [(+)-8]
- "ED70%" for 5-HTP reduction (central 5-HT receptors): 0.2 to 0.4 µmol/kg
- Mounts (number) (Male Wistar rats; 4 mg/kg i.p., 15 min after treatment, control 2, listed as (+)-8 · HCl): 1^*
- Ejaculatory latency (Male Wistar rats; 4 mg/kg i.p., 15 min after treatment, control 4.75, listed as (+)-8 · HCl): 1.05^*** min
- Postejaculatory interval (Male Wistar rats; 4 mg/kg i.p., 15 min after treatment, control 5.50, listed as (+)-8 · HCl): 6.15 min
- Intromissions (number) (Male Wistar rats; 4 mg/kg i.p., 15 min after treatment, control 9, listed as (+)-8 · HCl): 2^***

Compound: CCCN(CCC)C1CCc2cccc(OC)c2C1 (single isomer, unassigned; (-)) [(-)-8]
- "ED70%" for 5-HTP reduction (central 5-HT receptors): 0.3 to 0.4 µmol/kg
- Mounts (number) (Male Wistar rats; 4 mg/kg i.p., 15 min after treatment, control 2, listed as (-)-8 · HCl): 0.5^*
- Ejaculatory latency (Male Wistar rats; 4 mg/kg i.p., 15 min after treatment, control 4.75, listed as (-)-8 · HCl): 1.30^*** min
- Postejaculatory interval (Male Wistar rats; 4 mg/kg i.p., 15 min after treatment, control 5.50, listed as (-)-8 · HCl): 5.65 min
- Intromissions (number) (Male Wistar rats; 4 mg/kg i.p., 15 min after treatment, control 9, listed as (-)-8 · HCl): 4.5^**

Compound: CCCCN(CCCC)C1CCc2cccc(OC)c2C1 (stereo not shown) [Compound 10]
- "ED70%" for 5-HTP reduction (central 5-HT receptors): 25 µmol/kg
- "ED70%" (central 5-HT receptors; [1]): above 10 umol/kg

Compound: CNC1CCc2cccc(O)c2C1 (stereo not shown) [Compound 14]
- "ED70%" for 5-HTP reduction (central 5-HT receptors): 1.5 to 10 µmol/kg

Compound: CCCNC1CCc2cccc(O)c2C1 (stereo not shown) [Compound 15]
- "ED70%" for 5-HTP reduction (central 5-HT receptors): 0.4 µmol/kg

Compound: CCCCNC1CCc2cccc(O)c2C1 (stereo not shown) [Compound 16]
- "ED70%" for 5-HTP reduction (central 5-HT receptors): 6 µmol/kg

Compound: CC(C)NC1CCc2cccc(O)c2C1 (stereo not shown) [Compound 17]
- "ED70%" for 5-HTP reduction (central 5-HT receptors): 8 µmol/kg

Compound: CCCCCCCCNC1CCc2cccc(O)c2C1 (stereo not shown) [Compound 18]
- "ED70%" for 5-HTP reduction (central 5-HT receptors): 50 µmol/kg
- "ED70%" (central 5-HT receptors; [1]): above 10 umol/kg

Compound: CCCN(CC)C1CCc2cccc(O)c2C1 (stereo not shown) [Compound 19]
- "ED70%" for 5-HTP reduction (central 5-HT receptors): 0.09 µmol/kg

Compound: Br.CCCN(CCC)C1CCc2cccc(O)c2C1 (stereo not shown) [Compound 20, 2-(di-n-propylamino)-8-hydroxytetralin hydrobromide]
- "ED70%" for 5-HTP reduction (central 5-HT receptors): 0.06 µmol/kg
- "ED70%" (central 5-HT receptors; [2]): 0.01 to 1.0 µmol/kg
- Mounts (number) (Male Wistar rats; 4 mg/kg i.p., second experiment (N 9), control 1): 0
- Ejaculatory latency (Male Wistar rats; 4 mg/kg i.p., second experiment (N 9), control 1.80): 0.25 min
- Postejaculatory interval (Male Wistar rats; 4 mg/kg i.p., second experiment (N 9), control 4.45): 4.75 min
- Intromissions (number) (Male Wistar rats; 4 mg/kg i.p., second experiment (N 9), control 5): 1^***

Compound: CCCCN(CCC)C1CCc2cccc(O)c2C1 (stereo not shown) [Compound 21]
- "ED70%" for 5-HTP reduction (central 5-HT receptors): 0.5 µmol/kg
- "ED70%" (central 5-HT receptors; [2]): 0.01 to 1.0 µmol/kg

Compound: CCCCN(CCCC)C1CCc2cccc(O)c2C1 (stereo not shown) [Compound 22]
- "ED70%" for 5-HTP reduction (central 5-HT receptors): 8 µmol/kg

Compound: CCCN(Cc1ccccc1)C1CCc2cccc(O)c2C1 (stereo not shown) [Compound 23]
- "ED70%" for 5-HTP reduction (central 5-HT receptors): 3 µmol/kg

Compound: Oc1cccc2c1CC(N1CCCCC1)CC2 (stereo not shown) [Compound 24]
- "ED70%" for 5-HTP reduction (central 5-HT receptors): <20 µmol/kg
